Test results published in patent publication US10927123B2, “Modulators of the beta-3 adrenergic receptor useful for the treatment or prevention of disorders related thereto” (Arena Pharmaceuticals, Inc., priority 2016, dated 2021).

These compounds were tested against Beta-3 Adrenergic Receptor (Homo sapiens (Human), UniProt P13945) (assay: HTRF cAMP antagonist assay (IC50 determination)). Conditions: CHO-K1 cells stably expressing recombinant receptor; antagonism of isoproterenol at EC90; cAMP readout.
Sequence of Beta-3 Adrenergic Receptor (P13945 whole entry, species assumed): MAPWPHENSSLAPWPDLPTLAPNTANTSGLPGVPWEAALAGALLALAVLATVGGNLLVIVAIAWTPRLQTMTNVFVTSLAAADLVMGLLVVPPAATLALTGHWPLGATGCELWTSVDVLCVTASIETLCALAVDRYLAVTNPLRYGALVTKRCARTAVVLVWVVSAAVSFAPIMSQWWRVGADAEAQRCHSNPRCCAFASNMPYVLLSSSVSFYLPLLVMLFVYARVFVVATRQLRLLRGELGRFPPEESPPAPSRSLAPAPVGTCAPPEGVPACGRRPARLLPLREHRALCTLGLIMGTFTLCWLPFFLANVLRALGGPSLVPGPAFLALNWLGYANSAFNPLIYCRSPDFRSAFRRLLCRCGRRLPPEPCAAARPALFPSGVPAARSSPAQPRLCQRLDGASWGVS
Format: cell-based
Procedure, shortened: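 Antagonist mode: isoproterenol at its predetermined EC90 added after compound to recombinant CHO-K1 cells in IBMX-containing PBS, 1 h, room temperature. Compounds tested as 5-fold, 10-point dilutions, top final typically 10 or 100 μM. HTRF signal converted to cAMP via standard curve, giving IC50.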

Row | SMILES | IC50 [nM]
1 | NCc1ccc(-c2ccc(F)c(S(=O)(=O)N3CCC4(CC3)C[C@@H](NC[C@H](O)COc3cccc(S(=O)(=O)C5(CO)CC5)c3)CO4)c2)cc1 [Compound 169, (S)-1-((R)-8-(4′-(aminomethyl)-4-fluorobiphenyl-3-ylsulfonyl)-1-oxa-8-azaspiro[4.5]decan-3-ylamino)-3-(3-(1-(hydroxymethyl)cyclopropylsulfonyl)phenoxy)propan-2-ol] | 17.5
2 | CC(C)Oc1ccc(-c2ccc(CN)cc2)cc1S(=O)(=O)N1CCC2(CC1)C[C@@H](NC[C@H](O)COc1cccc(S(=O)(=O)C3CC3)c1)CO2 [Compound 171, (S)-1-((R)-8-(4′-(aminomethyl)-4-isopropoxybiphenyl-3-ylsulfonyl)-1-oxa-8-azaspiro[4.5]decan-3-ylamino)-3-(3-(cyclopropylsulfonyl)phenoxy)propan-2-ol] | 25
3 | NC1(c2ccc(-c3cccc(S(=O)(=O)N4CCC5(CC4)C[C@@H](NC[C@H](O)COc4cccc(S(=O)(=O)C6(CO)CC6)c4)CO5)c3)cc2)CC1 [Compound 173, (S)-1-((R)-8-(4′-(1-aminocyclopropyl)biphenyl-3-ylsulfonyl)-1-oxa-8-azaspiro[4.5]decan-3-ylamino)-3-(3-(1-(hydroxymethyl)cyclopropylsulfonyl)phenoxy)propan-2-ol] | 31.2
4 | CCOc1ccc(-c2ccc(C(C)(C)CN)cc2)cc1S(=O)(=O)N1CCC2(CC1)C[C@@H](NC[C@H](O)COc1cccc(S(=O)(=O)C3(CO)CC3)c1)CO2 [Compound 174, (S)-1-((R)-8-(4′-(1-amino-2-methylpropan-2-yl)-4-ethoxybiphenyl-3-ylsulfonyl)-1-oxa-8-azaspiro[4.5]decan-3-ylamino)-3-(3-(1-(hydroxymethyl)cyclopropylsulfonyl)phenoxy)propan-2-ol] | 699
5 | CCOc1ccc(-c2ccc(CCNC(C)=O)cc2)cc1S(=O)(=O)N1CCC2(CC1)C[C@@H](NC[C@H](O)COc1cccc(S(=O)(=O)C3(CO)CC3)c1)CO2 [Compound 175, N-(2-(4′-ethoxy-3′-((R)-3-((S)-2-hydroxy-3-(3-(1-(hydroxymethyl)cyclopropylsulfonyl)phenoxy)propylamino)-1-oxa-8-azaspiro[4.5]decan-8-ylsulfonyl)biphenyl-4-yl)ethyl)acetamide] | 716
6 | CCOc1ccc(-c2ccc(C(C)(C)CN)cc2)cc1S(=O)(=O)N1CCC2(CC1)C[C@H](NC[C@H](O)COc1cccc(S(=O)(=O)C3(CO)CC3)c1)CO2 [Compound 176, (S)-1-((S)-8-(4′-(1-amino-2-methylpropan-2-yl)-4-ethoxybiphenyl-3-ylsulfonyl)-1-oxa-8-azaspiro[4.5]decan-3-ylamino)-3-(3-(1-(hydroxymethyl)cyclopropylsulfonyl)phenoxy)propan-2-ol] | 58.4
7 | CCOc1ccc(-c2ccc(CCNC(C)=O)cc2)cc1S(=O)(=O)N1CCC2(CC1)C[C@H](NC[C@H](O)COc1cccc(S(=O)(=O)C3(CO)CC3)c1)CO2 [Compound 177, N-(2-(4′-ethoxy-3′-((S)-3-((S)-2-hydroxy-3-(3-(1-(hydroxymethyl)cyclopropylsulfonyl)phenoxy)propylamino)-1-oxa-8-azaspiro[4.5]decan-8-ylsulfonyl)biphenyl-4-yl)ethyl)acetamide] | 50.6
8 | CCOc1ccc(-c2ccc(CN)cc2)cc1S(=O)(=O)N1CCC2(CC1)C[C@@H](NC[C@H](O)COc1cccc(S(=O)(=O)CC(N)=O)c1)CO2 [Compound 179, 2-(3-((S)-3-((R)-8-(4′-(aminomethyl)-4-ethoxybiphenyl-3-ylsulfonyl)-1-oxa-8-azaspiro[4.5]decan-3-ylamino)-2-hydroxypropoxy)phenylsulfonyl)acetamide] | 49.1
9 | CC(C)(CN)c1ccc(-c2cccc(S(=O)(=O)N3CCC4(CC3)C[C@H](NC[C@H](O)COc3cccc(S(=O)(=O)C5(CO)CC5)c3)CO4)c2)cc1 [Compound 180, (S)-1-((S)-8-(4′-(1-amino-2-methylpropan-2-yl)biphenyl-3-ylsulfonyl)-1-oxa-8-azaspiro[4.5]decan-3-ylamino)-3-(3-(1-(hydroxymethyl)cyclopropylsulfonyl)phenoxy)propan-2-ol] | 30.7
10 | CC(C)(CN)c1ccc(-c2cccc(S(=O)(=O)N3CCC4(CC3)C[C@@H](NC[C@H](O)COc3cccc(S(=O)(=O)C5(CO)CC5)c3)CO4)c2)cc1 [Compound 181, (S)-1-((R)-8-(4′-(1-amino-2-methylpropan-2-yl)biphenyl-3-ylsulfonyl)-1-oxa-8-azaspiro[4.5]decan-3-ylamino)-3-(3-(1-(hydroxymethyl)cyclopropylsulfonyl)phenoxy)propan-2-ol] | 180
11 | NCc1ccc(-c2cccc(S(=O)(=O)N3CCC4(CC3)C[C@H](NC[C@H](O)COc3cccc(S(=O)(=O)C5(CO)CC5)c3)CO4)c2)cc1F [Compound 182, (S)-1-((S)-8-(4′-(aminomethyl)-3′-fluorobiphenyl-3-ylsulfonyl)-1-oxa-8-azaspiro[4.5]decan-3-ylamino)-3-(3-(1-(hydroxymethyl)cyclopropylsulfonyl)phenoxy)propan-2-ol] | 24.7
12 | NC1(c2ccc(-c3cccc(S(=O)(=O)N4CCC5(CC4)C[C@H](NC[C@H](O)COc4cccc(S(=O)(=O)C6(CO)CC6)c4)CO5)c3)cc2)CC1 [Compound 184, (S)-1-((S)-8-(4′-(1-aminocyclopropyl)biphenyl-3-ylsulfonyl)-1-oxa-8-azaspiro[4.5]decan-3-ylamino)-3-(3-(1-(hydroxymethyl)cyclopropylsulfonyl)phenoxy)propan-2-ol] | 26.7
13 | CCOc1ccc(-c2ccc(C3(N)CC3)cc2)cc1S(=O)(=O)N1CCC2(CC1)C[C@H](NC[C@H](O)COc1cccc(S(=O)(=O)C3(CO)CC3)c1)CO2 [Compound 188, (S)-1-((S)-8-(4′-(1-aminocyclopropyl)-4-ethoxybiphenyl-3-ylsulfonyl)-1-oxa-8-azaspiro[4.5]decan-3-ylamino)-3-(3-(1-(hydroxymethyl)cyclopropylsulfonyl)phenoxy)propan-2-ol] | 35
14 | CC(=O)NCCc1ccc(-c2cccc(S(=O)(=O)N3CCC4(CC3)C[C@H](NC[C@H](O)COc3cccc(S(=O)(=O)C5(CO)CC5)c3)CO4)c2)cc1 [Compound 190, N-(2-(3′-((S)-3-((S)-2-hydroxy-3-(3-(1-(hydroxymethyl)cyclopropylsulfonyl)phenoxy)propylamino)-1-oxa-8-azaspiro[4.5]decan-8-ylsulfonyl)biphenyl-4-yl)ethyl)acetamide] | 31.3

More lines, in order of falling IC50, values ahead:

Row | IC50 [nM] | SMILES
15 | 1600 | O=C(O)CS(=O)(=O)c1cccc(OC[C@@H](O)CN[C@H]2COC3(CCN(S(=O)(=O)c4cnc5ccccc5c4)CC3)C2)c1 [Compound 183, 2-(3-((S)-2-hydroxy-3-((R)-8-(quinolin-3-ylsulfonyl)-1-oxa-8-azaspiro[4.5]decan-3-ylamino)propoxy)phenylsulfonyl)acetic acid]
16 | 416 | Cc1ccc(-c2cccc(S(=O)(=O)N3CCC4(CC3)C[C@@H](NC[C@H](O)COc3cccc(S(=O)(=O)C5(CO)CC5)c3)CO4)c2)cc1 [Compound 170, (S)-1-(3-(1-(hydroxymethyl)cyclopropylsulfonyl)phenoxy)-3-((R)-8-(4′-methylbiphenyl-3-ylsulfonyl)-1-oxa-8-azaspiro[4.5]decan-3-ylamino)propan-2-ol]
17 | 258 | O=S(=O)(c1cncc(Br)c1)N1CCC2(CC1)C[C@@H](NC[C@H](O)COc1cccc(S(=O)(=O)C3(CO)CC3)c1)CO2 [Compound 185, (S)-1-((R)-8-(5-bromopyridin-3-ylsulfonyl)-1-oxa-8-azaspiro[4.5]decan-3-ylamino)-3-(3-(1-(hydroxymethyl)cyclopropylsulfonyl)phenoxy)propan-2-ol]
18 | 78.6 | O=S(=O)(c1cncc(Br)c1)N1CCC2(CC1)C[C@H](NC[C@H](O)COc1cccc(S(=O)(=O)C3(CO)CC3)c1)CO2 [Compound 186, (S)-1-((S)-8-(5-bromopyridin-3-ylsulfonyl)-1-oxa-8-azaspiro[4.5]decan-3-ylamino)-3-(3-(1-(hydroxymethyl)cyclopropylsulfonyl)phenoxy)propan-2-ol]
19 | 50.3 | CCOc1ccc(-c2ccc(C3(N)CC3)cc2)cc1S(=O)(=O)N1CCC2(CC1)C[C@@H](NC[C@H](O)COc1cccc(S(=O)(=O)C3(CO)CC3)c1)CO2 [Compound 172, (S)-1-((R)-8-(4′-(1-aminocyclopropyl)-4-ethoxybiphenyl-3-ylsulfonyl)-1-oxa-8-azaspiro[4.5]decan-3-ylamino)-3-(3-(1-(hydroxymethyl)cyclopropylsulfonyl)phenoxy)propan-2-ol]
20 | 33.4 | CCOc1ccc(-c2ccc(CN)cc2)cc1S(=O)(=O)N1CCC2(CC1)C[C@H](NC[C@H](O)COc1cccc(S(=O)(=O)C(C)(C)CO)c1)CO2 [Compound 187, 2-(3-((S)-3-((S)-8-(4′-(aminomethyl)-4-ethoxybiphenyl-3-ylsulfonyl)-1-oxa-8-azaspiro[4.5]decan-3-ylamino)-2-hydroxypropoxy)phenylsulfonyl)-2-methylpropan-1-ol]
21 | 15.4 | CCOc1ccc(-c2ccc(CN)cc2)cc1S(=O)(=O)N1CCC2(CC1)C[C@H](NC[C@H](O)COc1cccc(S(=O)(=O)C(F)(F)CO)c1)CO2 [Compound 168, (S)-1-((S)-8-(4′-(aminomethyl)-4-ethoxybiphenyl-3-ylsulfonyl)-1-oxa-8-azaspiro[4.5]decan-3-ylamino)-3-(3-(1,1-difluoro-2-hydroxyethylsulfonyl)phenoxy)propan-2-ol]
22 | 10.3 | NCc1ccc(-c2cccc(S(=O)(=O)N3CCC4(CC3)C[C@@H](NC[C@H](O)COc3cccc(S(=O)(=O)C5CC5)c3)CO4)c2)cc1 [Compound 189, (S)-1-((R)-8-(4′-(aminomethyl)biphenyl-3-ylsulfonyl)-1-oxa-8-azaspiro[4.5]decan-3-ylamino)-3-(3-(cyclopropylsulfonyl)phenoxy)propan-2-ol]
